# According to patent US7008786B2, “Microorganism producing L-lysine and processes for producing L-lysine using the same” (priority 2000, dated 2006):
# Experiments:
# [1] = tested on: Corynebacterium glutamicum CJM107; test: Resistance to monensin: growth on minimal agar plate medium containing monensin; format: cell-based; details: Monensin 7,000 μg/l, 4 days, mutant strain CJM107
# Protocol: (§1) The parent CH77 strain and the mutant CJM107 strain were tested for their resistance to monensin by the following method. Cells were grown in a Luria-Bertani (LB) liquid medium for 16 hours. Then, the cells were washed twice with a sterilized physiological saline and then, appropriately diluted and cultivated on a minimal agar plate medium [glucose 10 g, (NH4)2SO4 2 g, urea 2 g, KH2PO4 1 g, K2HPO4 3 g, MgSO4.7H2O 0.5 g, FeSO4.7H2O 10 mg, MnSO4.7H2O 10 mg, biotin 100 μg, Thiamin.HCl 100 μg, CaCl2.2H2O 100 μg, Na2B4O7.10H2O 80 μg, (NH4)6MoO27.4H2O 40 μg, ZnSO4.7H2O 10 μg, CuSO4.7H2O 10 μg, MnCl2.4H2O 10 μg, FeCl3.6H2O 1 mg, agar 20 g, if necessary L-leucine 0.1 g, if necessary L-threonine 0.1 g, if necessary L-methionine 0.1 g, per distilled water of 11 (pH 7.0)] containing monensin of 7,000 μg/1 for 4 days.
# [2] = tested on: Corynebacterium glutamicum CH77; test: as above; format: cell-based; details: Monensin 7,000 μg/l, 4 days, parent strain CH77
# Protocol: as §1
smiles,measurement,setting,value
"CC[C@@]1([C@@H]2O[C@@H]([C@H]3O[C@@](O)(CO)[C@H](C)C[C@@H]3C)C[C@@H]2C)CC[C@H]([C@]2(C)CC[C@]3(C[C@H](O)[C@@H](C)[C@@H]([C@@H](C)[C@@H](OC)[C@H](C)C(=O)O)O3)O2)O1 [Monensin, monensin]",Growth of CJM107 in the presence of monensin,[1],+++
same,Growth of CH77 in the presence of monensin,[2],−
